From US20050164306A1, “Methods for screening for a compound useful in the treatment or prevention of lymphocytic disorders, for inhibiting lymphocite activity and preventing or treating lymphocytic disorders” (priority 2002, published 2005)
Entries after “also recorded” stand apart in the source; their conditions may differ. Read-outs that look alike come from different tables or passages of the source.

Key:
[1] = test system: human peripheral blood lymphocytes (PBL); test: Mitogen stimulation and proliferation assay (3H-thymidine uptake); assay type: cell-based; conditions: for lymphocytic activity including proliferation and humoral response (in words): normal T lymphocyte
Protocol: A thymidine uptake assay was used to evaluate the effect of […] inhibitors on the proliferative activity of normal lymphocytes. Cell suspensions of fresh human peripheral blood lymphocytes (PBL) were resuspended in RPMITM 1640 medium supplemented with 10% foetal bovine serum at a concentration of 2×10^6/ml. Aliquots of […] were plated on a […] (96-well) and stimulated with 10 ug/ml of (Con-A) or 40 ug/ml of (LPSTM) at a final volume of 0.2 ml/well. ConATM and LPSTM were used to stimulate preferentially T cells and B cells, respectively. […] After an additional a 4 h incubation at 37° C., cells were collected with a cell harvester and ^3H thymidine incorporation was measured in triplicate samples by liquid scintillation counting.

[2] = test system: Jurkat cells; test: Cell growth and proliferation of Jurkat cell lines; assay type: cell-based, human; conditions: inhibitor added at day 0; cell counts on day 5
Protocol: T cell Jurkat is an acute T cell leukemia obtained from the peripheral blood of human. It was purchassed from ATCC and was grown and maintained in RPMI™. 1640 medium containing 10% FBS, 2 mM L-glutamine adjusted to contain 1.5 g/L sodium bicarbonate, 4.5 g/L glucose, 10 mM HEPES and 1.0 mM sodium pyruvate. To evaluate the effect of the different inhibitors of NTPDases on the growth of Jurkat cells, BGO 136, erythrosin, 8 Bus ATP, AMP and β-γ-Me ATP were added in the RPMI™ 1640 medium in presence of cells at day=0. Cells counts and viability of cells were determined on day=5.

[3] = test system: mice; test: In vivo antibody production assay (humoral response to BSA, ELISA)
Protocol: Immunity mice were primed with antigen by an intraperitoneal injection of BSA as a T-dependent antigen. Briefly, BSA was resuspended in PBS (pH 7.2) and emulsified in the same volume of complete Freund's adjuvant (CFA). 30 ug BSA in […] PBS was given to each mouse. Four groups of ten mice were immunized. • Group 1: mice were injected i.p. with BSA alone with emulsified in (CFA) Group: Ag. • Group 2: mice were injected i.p. with BSA plus BGO 136 (400 mM) in […] PBS, emulsified in (CFA) or erythrosin B (0.25 g/Kg) • Group 3: mice were injected i.p. with BSA plus BGO 136 (800 mM) in […] PBS, emulsified in (CFA) or erythrosin B (0.5 g/Kg) • Group 4: mice were treated with BSA in presence of the inhibitor emulsified in (CFA). These mice received various i.p. doses of BGO 136 400 mM in 0.1 ml of normal PBS or erythrosin B 0.25 g/Kg, 2 doses/week are given as a maintenance dose. (group named DM=maintenance dose)
These initial immunizations (i.p.) were followed by two subsequent immunizations with emulsions of BSA alone or in presence of BGO136 400 mM or 800 mM, in incomplete Freund's adjuvant. Five days after each immunization, blood was collected from each animal, sera was analysed by an ELISA assay.
Flat-bottomed microtiter plate were coated with BSA (5 ug/ml) in NaHCO3/Na2CO3 50 mM (pH 9.6) at 37° C. for 2 h. Plates were washed three times with (PBS buffer, pH 7.4, 0.5 ml/L Tween-20) and then blocked with 400 ul of milk per well overnight, at 4° C. Diluted sera specimens were added (100 ul/well) and incubated for 2 h at 37° C. After thorough washing, wells were incubated with 100 ul of goat-anti-mouse IgG conjugated with peroxydase for 2 h at 37° C. followed by several washes. TMB substrate solution (100 ul/well), (42 mM TMB in DMSO, 0.1 M citric acid, Na2HPO4 0.2 M and H2O2 30%) was added. Color development was allowed to proceed for approximately 15 to 30 min, at room temperature. Reaction was terminated by adding 30 ul of 4N H2SO4. Optical density was read at 450 nm.

[4] = test system: NTPDase; test: NTPDase assay on intact human peripheral blood lymphocytes (PBL); assay type: biochemical
Protocol: Human lymphocytes were obtained from peripheral venous blood of normal and healthy medication-free volunteers. Fresh blood collected in EDTA glass tubes was layered into Histopaque™-1077 (a solution of Ficoll™ and sodium diatrizoate adjusted to a density of 1.077, Sigma, USA) and centrifuged at 400 g for exactly 30 min, at room temperature. During centrifugation, erythrocytes and granulocytes were aggregated by Ficoll™ and rapidly sedimented, whereas lymphocytes remained at the plasma interface. Plasma (the upper layer) was carefully removed to prevent disturbance of the buffy coat. The latter fraction rich in lymphocytes was recovered with a pasteur pipette and washed twice with RPMI™ 1640 medium by centrifugation, for 10 min, at 250×g. The final pellet was suspended in fresh RPMI™ 1640 medium supplemented with 2 mM L-glutamine, 10% foetal bovine serum inactivated at 56° C. for 30 min, and antibiotics: penicillin […], streptomucin 100 ug/ml and amphotericin 2.5 ug/ml. Cells were counted with the hemacytometer. […] The cell preparation named PBL (for peripheral blood lymphocyte) was immediately used for NTPDase assays and for mitogenic responses to stimulators.
Prior to the assays, human normal lymphocytes as well as leukemic cell lines, were washed three times with phosphate-free saline in 95 mM NaCl, 1 mM CaCl2, 2 mM MgCl2 and 45 mM Tris —HCl buffer (pH 7.4). Enzyme assays were carried out at 37° C. in 1 ml of the following assay medium: 95 mM NaCl, 5 mM KCl, 1 mM CaCl2, 2 mM MgCl2, 5 mM glucose, 0.05% BSA, 5 mM tetramisole and 45 mM Tris-HCl (pH 7.5). The reaction was started by adding the substrate (200 uM of ATP or ADP) and stopped with 250 ul of the Malachite green reagent. Controls were run with the enzyme added after the Malachite green reagent. Where indicated, 10 mM sodium azide (NaN3) or 1 mM, 5 mM and 10 mM of BGO 136 were added directly to the assay mixture. Inorganic phosphate was estimated according to Baykov et al.^(1) and enzyme activity was either expressed as nmoles of Pi released/min/mg of protein which corresponds to mUnits^(2) or as nmoles Pi/min/10^6 cells. Where indicated, lymphoid cells were lysed by three freeze thaw cycles in saline buffer and protein was measured with the method of Bradford using bovine serum albumin as a standard (3).

[5] = test system: mice; test: Graft vs. host reaction, spleen weight after cell transplant (Bundick model); assay type: in vivo; conditions: for splenomegaly: spleen weighed 21 days after injection of parents' spleen cells; for suppression %: suppression of splenomegaly, no treatment = 100, positive = 0
Protocol: Mice were injected their parents' spleen cells. 21 days later, their spleen was weighed. Activation of Th2 (T helper cells) cells. The treatment groups are cyclosporin, BGO, and AMP. […] The “No treatment group” is constituted of normal mice. The “positive” group is constituted of mice having undergone spleen tissue transplantation and having been injected with the carrier only (PBS™) without inhibitor. […] The spleen of all mice was then removed and weighed. The weigh of treated mice was then compared with that of the “No treatment” mice.

[6] = target: NTPDase; conditions: ATP and ADP as substrate; read-out: Ki (mixed type of inhibition); cited from earlier work

Row | Compound | proliferation induced by ConA (in words) ([1]; ConA-stimulated PBL) | lymphocytic activity including proliferation and humoral response (in words) [1] | Jurkat cell proliferation (in words) [2] | effect on NTPDase activity (in words) [4] | splenomegaly [5] | suppression % [5] [%] | further results
1 | O.O=C([O-])c1ccccc1-c1c2cc(I)c(=O)c(I)c-2oc2c(I)c([O-])c(I)cc12.[Na+].[Na+] [erythrosin B] | dose-dependent inhibition | decrease | marked reduction of cell proliferation | dose-dependent inhibition; also recorded: decrease the NTPDase activity |  |  | levels of antibodies to albumin (in words) ([3]; especially with multiple injections (group DM)): significant decrease
2 | CCCCSc1nc2c(N)ncnc2n1[C@@H]1O[C@H](COP(=O)(O)O)C(O)[C@@H]1O (stereo partly drawn) [8 BUS-AMP] |  | decrease |  | pronounced dose-dependent inhibition |  |  | effect on NTPDase activity (in words) ([4]; listed as 8 Bus AMP): decrease the NTPDase activity
3 | O=S(=O)(O)c1ccc2c(O)cc(S(=O)(=O)O)cc2c1 [BGO 136, 1-hydroxynaphtalene-3,6 disulfonic acid] | inhibited in a dose-dependent manner | decrease | marked reduction of cell proliferation | decrease the NTPDase activity; also recorded: dose-dependent inhibition | 4.3 ± 0.29 mg/g of b. weight | 56 | proliferation induced by ConA, percent of the positive control values ([1]; ConA-stimulated PBL, 10 mM): about 10%; inhibition of LPS-induced proliferation (in words) ([1]; LPS-stimulated PBL): much less pronounced; proliferation of non-activated lymphocytes (3H-Thymidine incorporation in DNA) ([1]; unstimulated PBL): did not affect; efficiency in preventing spleen growth following transplantation, versus cyclosporine [5]: more efficient than cyclosporine; transplanted spleens versus positive control mice (in words) ([5]; ANOVA): significantly smaller; Ki [6]: 380 µM; tolerance: toxic or allergic reactions ([3]; during administration (two months)): No toxic or allergic reactions were observed; effect on levels of albumin antibodies (in words) ([3]; repeated injections (group DM) versus single dose): even more efficient; reduction of levels of albumin antibodies ([3]; single dose 800 mM i.p.): ≤ 50%; inhibition of ATPase and ADPase activities ([4]; 5 mM): 40%; inhibition of ATPase and ADPase activities ([4]; 10 mM): ≥ 50%
4 | Nc1ncnc2c1ncn2[C@@H]1O[C@H](COP(=O)(O)O)[C@@H](O)[C@H]1O [AMP, adenosine 5′-monophosphate] |  |  | marked reduction of cell proliferation |  | 6.7 ± 0.82 mg/g of b. weight | 8 | 
5 | Nc1ncnc2c1ncn2[C@@H]1O[C@H](COP(=O)(O)OP(=O)(O)CP(=O)(O)O)[C@@H](O)[C@H]1O [β-γ-Me ATP, beta-gamma methylene ATP] | reduced cell proliferation | decrease | less pronounced but significant effect | inhibited in a dose-dependent manner; also recorded: decrease the NTPDase activity |  |  | 
6 | CCCCSc1nc2c(N)ncnc2n1C1OC(COP(=O)(O)OP(=O)(O)OP(=O)(O)O)C(O)C1O (stereo not drawn) [8 BUS-ATP] | reduced cell proliferation | decrease | marked reduction of cell proliferation | decrease the NTPDase activity |  |  | 
